Source: patent US6495525B1, “VLA-4 inhibitor: oMePUPA-V” (Biogen, Inc., priority 1998, dated 2002)

How the values were obtained:
VLA-4 [1] = target: VLA-4 (Homo sapiens, UniProt P05556+P13612); test: VCAM-Ig Direct Binding Assay (DBA) on Jurkat cells; parameters: endogenous in cells; host or cells: Jurkat (human T cell line)
Excerpt: A direct binding assay may also be employed to quantitate the inhibitory activity of the compounds of this invention. In this assay, a VCAM-IgG fusion protein containing the first two immunoglobulin domains of VCAM (D1D2) attached above the hinge region of an IgG1 molecule (“VCAM 2D-IgG”), is conjugated to a marker enzyme, such as alkaline phosphatase (“AP”). The synthesis of this VCAM-IgG fusion is described in PCT publication WO 90/13300, the disclosure of which is herein incorporated by reference. The conjugation of that fusion to a marker enzyme is achieved by cross-linking methods well-known in the art.
The VCAM-IgG enzyme conjugate is then placed in the wells of a multi-well filtration plate, such as that contained in the Millipore Multiscreen Assay System (Millipore Corp., Bedford, Ma.). Varying concentrations of the test inhibitory compound are then added to the wells followed by addition of VLA-4-expressing cells. […]
Following incubation, the wells are vacuum drained, leaving behind the cells and any bound VCAM. Quantitation of bound VCAM is determined by adding an appropriate colorimetric substrate for the enzyme conjugated to VCAM-IgG and determining the amount of reaction product. […]
VCAM-Ig was constructed and purified as published (Jakubowski, A. et al. Cell Adhesion and Communication 3:131-142, 1995). […] Binding to VLA-4 was assessed on the human T cell line, Jurkat (α4β1). […]

α4β7 = target: T1, α4β7 (Homo sapiens, UniProt P13612+P26010); test: JY cell adhesion to CS1/BSA conjugate; format: cell-based; details: Mn+2
T1 construct: endogenous in cells; host or cells: JY cells
T1 sequence (P13612 34-1032): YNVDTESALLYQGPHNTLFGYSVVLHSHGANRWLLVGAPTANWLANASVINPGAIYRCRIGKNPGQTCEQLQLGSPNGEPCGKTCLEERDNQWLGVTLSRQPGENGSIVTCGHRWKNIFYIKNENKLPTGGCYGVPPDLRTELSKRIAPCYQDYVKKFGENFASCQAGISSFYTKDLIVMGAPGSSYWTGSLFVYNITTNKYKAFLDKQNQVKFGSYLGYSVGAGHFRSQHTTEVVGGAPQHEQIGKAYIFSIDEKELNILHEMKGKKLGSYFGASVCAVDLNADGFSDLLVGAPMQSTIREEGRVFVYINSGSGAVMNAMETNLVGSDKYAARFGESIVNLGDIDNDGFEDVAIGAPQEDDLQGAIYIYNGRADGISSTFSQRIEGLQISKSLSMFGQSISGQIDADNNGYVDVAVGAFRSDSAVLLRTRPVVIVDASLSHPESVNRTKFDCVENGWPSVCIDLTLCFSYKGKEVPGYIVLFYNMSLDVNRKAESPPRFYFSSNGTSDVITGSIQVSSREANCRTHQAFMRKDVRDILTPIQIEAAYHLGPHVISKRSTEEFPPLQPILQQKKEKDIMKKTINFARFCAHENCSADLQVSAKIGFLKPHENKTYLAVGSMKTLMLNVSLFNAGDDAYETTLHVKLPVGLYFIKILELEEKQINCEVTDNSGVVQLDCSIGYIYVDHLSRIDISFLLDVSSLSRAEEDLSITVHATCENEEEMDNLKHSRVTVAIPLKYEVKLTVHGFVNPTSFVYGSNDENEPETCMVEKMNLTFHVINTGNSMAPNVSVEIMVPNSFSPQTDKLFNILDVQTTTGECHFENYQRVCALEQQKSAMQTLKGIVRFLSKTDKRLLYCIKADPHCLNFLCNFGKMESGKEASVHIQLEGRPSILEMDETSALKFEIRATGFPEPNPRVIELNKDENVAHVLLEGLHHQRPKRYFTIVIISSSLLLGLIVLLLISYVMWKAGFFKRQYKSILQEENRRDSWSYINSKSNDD
T1 sequence (P26010 20-798): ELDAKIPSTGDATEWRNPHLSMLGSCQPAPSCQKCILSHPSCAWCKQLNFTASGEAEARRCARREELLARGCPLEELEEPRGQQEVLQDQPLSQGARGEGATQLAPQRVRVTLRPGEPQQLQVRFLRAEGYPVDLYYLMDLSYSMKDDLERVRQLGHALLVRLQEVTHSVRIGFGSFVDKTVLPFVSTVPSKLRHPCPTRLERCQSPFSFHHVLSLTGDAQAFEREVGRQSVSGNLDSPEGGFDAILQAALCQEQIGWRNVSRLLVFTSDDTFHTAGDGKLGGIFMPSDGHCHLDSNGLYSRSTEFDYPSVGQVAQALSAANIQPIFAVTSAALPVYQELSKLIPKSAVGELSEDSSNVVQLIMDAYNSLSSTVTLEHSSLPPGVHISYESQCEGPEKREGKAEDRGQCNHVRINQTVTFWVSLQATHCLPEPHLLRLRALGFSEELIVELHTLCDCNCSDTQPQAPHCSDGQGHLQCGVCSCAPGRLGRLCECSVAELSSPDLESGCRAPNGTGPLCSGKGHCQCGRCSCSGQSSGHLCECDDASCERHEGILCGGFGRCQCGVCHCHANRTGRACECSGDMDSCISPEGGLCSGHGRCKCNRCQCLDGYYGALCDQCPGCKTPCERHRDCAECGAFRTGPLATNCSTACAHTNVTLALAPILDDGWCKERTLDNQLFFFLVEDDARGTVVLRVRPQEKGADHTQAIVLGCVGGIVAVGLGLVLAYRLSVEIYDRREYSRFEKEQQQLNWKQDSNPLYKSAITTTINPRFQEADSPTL
Procedure: Binding to α4β7 was assessed on JY cells in the presence of Mn^+2. In the binding assay, VCAM-Ig and oMePUPA-V compete for binding to α4β7 on JY cells (See section 4.1.1 for assay protocol). In the cell adhesion assay, oMePUPA-V was tested for its ability to block JY (α4β7) cell binding to CS1/BSA conjugate

VLA-4 [2] = target: T2, VLA-4 (Mus musculus, UniProt P09055+Q00651); test: VCAM-Ig Competitive Binding Assay on mouse splenocytes; details: Mn+2
T2 construct: from tissue; host or cells: mouse spleen cells
T2 sequence (Q00651 41-1039): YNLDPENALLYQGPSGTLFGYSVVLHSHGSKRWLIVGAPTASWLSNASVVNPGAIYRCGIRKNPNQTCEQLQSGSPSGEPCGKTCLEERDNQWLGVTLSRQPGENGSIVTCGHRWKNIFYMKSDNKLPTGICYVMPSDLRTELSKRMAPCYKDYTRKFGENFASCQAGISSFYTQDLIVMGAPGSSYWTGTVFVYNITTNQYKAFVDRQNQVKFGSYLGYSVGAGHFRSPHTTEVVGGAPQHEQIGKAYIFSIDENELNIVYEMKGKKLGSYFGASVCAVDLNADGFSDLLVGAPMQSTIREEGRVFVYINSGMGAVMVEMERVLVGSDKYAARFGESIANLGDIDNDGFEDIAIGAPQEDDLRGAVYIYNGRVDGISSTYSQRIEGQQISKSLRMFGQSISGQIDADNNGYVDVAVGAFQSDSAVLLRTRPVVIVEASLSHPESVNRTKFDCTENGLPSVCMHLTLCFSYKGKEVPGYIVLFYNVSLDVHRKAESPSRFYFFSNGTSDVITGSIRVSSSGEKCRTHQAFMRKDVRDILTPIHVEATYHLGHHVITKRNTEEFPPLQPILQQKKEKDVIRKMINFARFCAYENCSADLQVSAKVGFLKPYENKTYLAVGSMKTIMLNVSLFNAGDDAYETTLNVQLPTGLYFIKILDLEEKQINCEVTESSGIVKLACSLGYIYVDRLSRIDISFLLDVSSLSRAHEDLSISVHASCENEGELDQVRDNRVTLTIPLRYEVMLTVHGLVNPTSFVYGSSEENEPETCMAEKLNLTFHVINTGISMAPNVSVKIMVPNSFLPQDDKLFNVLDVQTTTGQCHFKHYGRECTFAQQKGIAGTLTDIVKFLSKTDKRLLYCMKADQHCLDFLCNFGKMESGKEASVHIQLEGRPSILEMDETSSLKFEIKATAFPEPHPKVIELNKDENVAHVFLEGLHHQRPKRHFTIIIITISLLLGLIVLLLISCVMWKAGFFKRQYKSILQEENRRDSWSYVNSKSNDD
T2 sequence (P09055 21-798): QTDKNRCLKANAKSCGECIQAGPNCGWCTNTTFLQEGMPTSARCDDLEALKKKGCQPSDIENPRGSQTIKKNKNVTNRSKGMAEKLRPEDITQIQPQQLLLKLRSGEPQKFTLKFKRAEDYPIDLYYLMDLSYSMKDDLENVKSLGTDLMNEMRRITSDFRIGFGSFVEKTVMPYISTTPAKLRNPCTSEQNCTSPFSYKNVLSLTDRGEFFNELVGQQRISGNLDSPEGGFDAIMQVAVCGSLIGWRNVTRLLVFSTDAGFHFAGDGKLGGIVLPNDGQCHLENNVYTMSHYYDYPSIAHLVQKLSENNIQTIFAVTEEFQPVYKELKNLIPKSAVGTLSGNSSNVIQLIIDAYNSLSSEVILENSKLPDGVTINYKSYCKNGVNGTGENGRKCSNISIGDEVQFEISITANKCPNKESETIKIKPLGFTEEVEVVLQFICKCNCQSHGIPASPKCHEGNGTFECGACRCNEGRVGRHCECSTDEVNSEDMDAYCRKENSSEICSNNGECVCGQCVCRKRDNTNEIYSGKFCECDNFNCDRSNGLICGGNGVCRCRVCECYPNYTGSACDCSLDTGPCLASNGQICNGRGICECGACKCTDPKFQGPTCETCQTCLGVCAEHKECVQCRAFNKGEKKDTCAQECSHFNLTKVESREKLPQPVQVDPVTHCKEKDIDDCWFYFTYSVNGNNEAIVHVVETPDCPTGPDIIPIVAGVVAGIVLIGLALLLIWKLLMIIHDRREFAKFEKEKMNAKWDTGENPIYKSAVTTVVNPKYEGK

Sequence of VLA-4 (Homo sapiens, UniProt P05556+P13612) (P05556 21-798, one chain of several): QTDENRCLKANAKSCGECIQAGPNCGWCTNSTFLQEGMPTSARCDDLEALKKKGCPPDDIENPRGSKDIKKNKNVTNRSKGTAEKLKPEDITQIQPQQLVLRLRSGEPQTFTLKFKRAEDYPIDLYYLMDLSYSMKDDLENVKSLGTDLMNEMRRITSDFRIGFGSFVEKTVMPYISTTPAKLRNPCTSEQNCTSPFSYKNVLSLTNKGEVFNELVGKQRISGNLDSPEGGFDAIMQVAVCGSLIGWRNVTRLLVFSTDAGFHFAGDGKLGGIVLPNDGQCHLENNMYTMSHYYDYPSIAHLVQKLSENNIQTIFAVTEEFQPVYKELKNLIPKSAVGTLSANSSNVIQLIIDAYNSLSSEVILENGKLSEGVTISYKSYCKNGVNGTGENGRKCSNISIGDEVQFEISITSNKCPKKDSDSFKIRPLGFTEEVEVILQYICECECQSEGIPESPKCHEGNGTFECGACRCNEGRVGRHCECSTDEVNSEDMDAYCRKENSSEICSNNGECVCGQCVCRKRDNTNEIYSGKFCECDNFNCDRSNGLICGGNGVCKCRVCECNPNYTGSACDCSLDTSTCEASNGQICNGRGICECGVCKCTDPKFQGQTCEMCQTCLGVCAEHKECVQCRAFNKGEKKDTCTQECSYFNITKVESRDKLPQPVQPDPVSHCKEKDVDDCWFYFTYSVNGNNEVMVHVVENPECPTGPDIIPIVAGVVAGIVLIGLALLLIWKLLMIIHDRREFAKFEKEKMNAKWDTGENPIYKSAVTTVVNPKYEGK

Structure (SMILES): Cc1ccccc1NC(=O)Nc1ccc(CC(=O)N2CCC[C@H]2C(=O)N[C@H](C)CC(=O)O)cc1 [oMePUPA-V]
- IC50 (VLA-4 [1]; 1 mM MnCl2, read-out: IC50 ± SD, Jurkat cell VCAM-Ig Binding): 8 ± 1 nM
- specificity for VLA-4 (VLA-4 [1]; versus α4β7, VLA-5 and gpIIbIIIa): > 10,000 fold
- inhibition, JY (α4β7) CS1/BSA adhesion (α4β7; @ 100 μM): no inhibition @
- blocking of α4β7 binding to CS1/BSA (in words) (α4β7; JY cells): does not block
- Ames test (mutagenicity) (Ames test (mutagenicity)): clean
- IC50 (VLA-4 [2]): 4 ± 2 nM
